Laboratory results from patent US20090104214A1 (priority 2004, published 2009).

Columns and labels:
PA63-LF binding = PA63-LF binding (Bacillus anthracis, UniProt P13423)
[1] = tested on: J774A.1 cells incubated with PA83 and LF; type: cell-based, mouse
[2] = target: anthrax lethal toxin (PA83 and LF) (Bacillus anthracis, UniProt P13423); settings: rat, in vivo, iv
PA63 [3] = target: T1, PA63 (Bacillus anthracis, UniProt P13423)
LF = LF (Bacillus anthracis, UniProt P15917)
[4] = target: purified recombinant PA83 (Bacillus anthracis, UniProt P13423)
PA63 [5] = target: T1, PA63; remark: listed apart in the source

T1 sequence (P13423 197-764 limits assumed): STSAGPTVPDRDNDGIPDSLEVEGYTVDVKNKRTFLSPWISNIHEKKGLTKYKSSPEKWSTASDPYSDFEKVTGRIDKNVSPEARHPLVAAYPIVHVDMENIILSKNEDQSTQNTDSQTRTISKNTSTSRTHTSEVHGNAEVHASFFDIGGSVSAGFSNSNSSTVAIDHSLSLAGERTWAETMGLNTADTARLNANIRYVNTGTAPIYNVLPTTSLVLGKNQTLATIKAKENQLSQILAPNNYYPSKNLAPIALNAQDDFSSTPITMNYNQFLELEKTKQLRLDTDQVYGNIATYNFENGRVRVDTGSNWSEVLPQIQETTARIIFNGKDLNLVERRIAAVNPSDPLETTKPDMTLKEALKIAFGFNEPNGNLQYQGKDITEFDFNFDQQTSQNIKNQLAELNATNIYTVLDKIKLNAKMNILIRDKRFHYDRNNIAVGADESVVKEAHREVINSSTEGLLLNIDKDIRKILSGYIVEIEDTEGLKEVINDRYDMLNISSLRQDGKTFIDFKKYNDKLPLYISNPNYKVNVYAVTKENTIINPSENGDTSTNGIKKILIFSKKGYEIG
Chain of PA63-LF binding (P13423 197-764 limits assumed): as above
Chain of anthrax lethal toxin (PA83 and LF) (P13423 197-764 limits assumed): as above
Chain of LF (P15917 34-809 limits assumed): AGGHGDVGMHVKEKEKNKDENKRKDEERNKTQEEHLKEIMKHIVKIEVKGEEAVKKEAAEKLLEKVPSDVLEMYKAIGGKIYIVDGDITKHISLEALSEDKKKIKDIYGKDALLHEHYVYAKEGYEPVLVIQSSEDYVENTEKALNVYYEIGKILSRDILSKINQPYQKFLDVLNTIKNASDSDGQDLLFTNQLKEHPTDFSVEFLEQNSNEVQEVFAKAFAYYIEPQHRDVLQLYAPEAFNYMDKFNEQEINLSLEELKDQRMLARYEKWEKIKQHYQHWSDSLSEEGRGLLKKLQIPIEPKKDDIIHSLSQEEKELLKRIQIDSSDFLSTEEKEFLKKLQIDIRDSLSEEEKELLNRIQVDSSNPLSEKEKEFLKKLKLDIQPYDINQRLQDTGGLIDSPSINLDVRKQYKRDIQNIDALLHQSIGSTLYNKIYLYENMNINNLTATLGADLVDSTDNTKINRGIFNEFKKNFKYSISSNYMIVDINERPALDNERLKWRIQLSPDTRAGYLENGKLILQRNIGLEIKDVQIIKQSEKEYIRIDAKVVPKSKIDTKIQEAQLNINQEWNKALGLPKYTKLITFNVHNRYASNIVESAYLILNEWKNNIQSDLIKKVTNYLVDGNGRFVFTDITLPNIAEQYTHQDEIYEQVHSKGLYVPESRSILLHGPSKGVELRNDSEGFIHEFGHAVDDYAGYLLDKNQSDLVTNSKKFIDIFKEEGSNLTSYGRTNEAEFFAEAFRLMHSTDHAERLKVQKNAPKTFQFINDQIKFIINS
Chain of purified recombinant PA83 (P13423 30-764 limits assumed): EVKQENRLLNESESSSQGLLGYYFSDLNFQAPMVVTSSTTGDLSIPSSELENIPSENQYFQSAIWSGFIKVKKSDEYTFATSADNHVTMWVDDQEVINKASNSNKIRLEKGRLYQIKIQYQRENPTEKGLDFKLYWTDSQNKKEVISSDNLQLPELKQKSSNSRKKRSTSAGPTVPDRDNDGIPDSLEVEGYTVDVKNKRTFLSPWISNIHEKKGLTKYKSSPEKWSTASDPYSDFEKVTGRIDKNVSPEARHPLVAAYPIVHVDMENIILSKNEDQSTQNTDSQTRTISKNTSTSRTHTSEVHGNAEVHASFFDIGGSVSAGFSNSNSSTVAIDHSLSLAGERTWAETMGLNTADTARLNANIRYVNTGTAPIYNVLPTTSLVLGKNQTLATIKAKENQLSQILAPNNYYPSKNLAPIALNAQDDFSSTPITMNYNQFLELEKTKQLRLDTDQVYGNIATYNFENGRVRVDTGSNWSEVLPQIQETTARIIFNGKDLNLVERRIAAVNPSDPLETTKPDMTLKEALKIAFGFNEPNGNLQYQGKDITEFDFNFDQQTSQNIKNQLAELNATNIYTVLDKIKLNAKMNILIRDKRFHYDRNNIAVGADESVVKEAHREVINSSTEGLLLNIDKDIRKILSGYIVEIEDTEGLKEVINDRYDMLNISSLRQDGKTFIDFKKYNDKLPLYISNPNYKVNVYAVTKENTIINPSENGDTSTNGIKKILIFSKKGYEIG

Substance	effective in blocking the interaction of PA with LF (summary statement) (PA63-LF binding)	inhibition of PA63-LF binding in ELISA, substitution of position 2 of MAP 3 (PA63-LF binding)	also measured
AVMTYWWLDPPL	Particularly effective		inhibition of PA63-LF binding in ELISA, alanine scanning of MAP3 (PA63-LF binding): better efficiency
NAMTYWWLDPPL [MAP3V/A]	Particularly effective		IC50 for inhibition of PA83/LF-induced cell mortality, compared with MAP3 [1]: one log lower than that of MAP3; neutralization of lethal toxin toxicity in rats [2]: completely neutralized toxicity; inhibition of PA63-LF binding in ELISA, alanine scanning of MAP3 (PA63-LF binding): better efficiency
NDMTYWWLDPPL	Particularly effective	good efficiency	
NEMTYWWLDPPL	Particularly effective	good efficiency	
NGMTYWWLDPPL	Particularly effective	good efficiency	
NNMTYWWLDPPL	Particularly effective	good efficiency	
NPMTYWWLDPPL	Particularly effective	good efficiency	
NQMTYWWLDPPL	Particularly effective	good efficiency	
NSMTYWWLDPPL	Particularly effective	good efficiency	
NTMTYWWLDPPL	Particularly effective	good efficiency	
NVMTYWWLAPPL	Particularly effective		inhibition of PA63-LF binding in ELISA, alanine scanning of MAP3 (PA63-LF binding): better efficiency
NVMTYWWLDPPA	Particularly effective		inhibition of PA63-LF binding in ELISA, alanine scanning of MAP3 (PA63-LF binding): better efficiency
NVMTYWWLDPPL [MAP3]	Particularly effective		binding to PA63 in ELISA (PA63 [3]): specifically bound; neutralization of lethal toxin toxicity in rats [2]: completely neutralized toxicity; IC50 of inhibition of PA63-LF binding in ELISA, compared with MAP2 (PA63-LF binding): about one log lower than that of MAP2; binding to LF in ELISA (LF): did not bind; binding to purified recombinant PA83 in ELISA [4]: did not bind
NVMTYWWLDPPL [p3]			equilibrium association constant KA of peptide-PA63 binding (PA63 [5]): 3.4e+07 M⁻¹; koff (PA63 [5]): 0.0004 s⁻¹; kon (PA63 [5]): 14000 M⁻¹ s⁻¹
NYMTYWWLDPPL	Particularly effective	good efficiency	
TLAYWWLTPSNP	Particularly effective		
TLPYWWLTPSNP [MAP2]	Particularly effective		binding to PA63 in ELISA (PA63 [3]): specifically bound; binding to LF in ELISA (LF): did not bind; binding to purified recombinant PA83 in ELISA [4]: did not bind
TLPYWWLTPSNP [p2]			equilibrium association constant KA of peptide-PA63 binding (PA63 [5]): 7.2e+06 M⁻¹; koff (PA63 [5]): 0.0007 s⁻¹; kon (PA63 [5]): 5000 M⁻¹ s⁻¹
YWWLDPP	Particularly effective		
YWWLEPP	Particularly effective		
YWWLHPP	Particularly effective		
YWWLKPP	Particularly effective		
YWWLQPP	Particularly effective		
YWWLTP			inhibition of PA63-LF binding in ELISA, shortening of MAP2 and re-elongation of YWWLTP (PA63-LF binding): minimal sequence able to inhibit PA-LF binding
YWWLTPP	Particularly effective		inhibition of PA63-LF binding in ELISA, shortening of MAP2 and re-elongation of YWWLTP (PA63-LF binding): superior inhibitory efficiency
YWWLTPPA	Particularly effective		inhibition of PA63-LF binding in ELISA, shortening of MAP2 and re-elongation of YWWLTP (PA63-LF binding): even better efficiency
YWWLTPPP [8mer peptide YWWLTPPP]			KA fold higher than that of lead 12mer p2 (PA63 [5]): about 10 fold; equilibrium association constant KA of peptide-PA63 binding (PA63 [5]): 6.8e+07 M⁻¹; koff (PA63 [5]): 0.0013 s⁻¹; kon (PA63 [5]): 88000 M⁻¹ s⁻¹
YWWLTPPP [MAP YWWLTPPP]	Particularly effective		neutralization of lethal toxin toxicity in rats [2]: completely neutralized toxicity; inhibition of PA63-LF binding in ELISA, shortening of MAP2 and re-elongation of YWWLTP (PA63-LF binding): even better efficiency
YWWLTPPQ	Particularly effective		inhibition of PA63-LF binding in ELISA, shortening of MAP2 and re-elongation of YWWLTP (PA63-LF binding): even better efficiency
